In patent US20240287070A1, “FUSED HETEROCYCLIC DERIVATIVES” (Janssen Sciences Ireland Unlimited Company, priority 2021, published 2024):

Key:
[1] = tested on: HBV (HepG2.117 cell line, inducibly HBV producing); experiment: Anti-HBV activity, intracellular HBV DNA by real-time PCR in HepG2.117 cell line; type: cell-based, hepatitis B virus; conditions: HepG2.117 cells, 3 days of treatment
Method in brief: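 Tet-off HepG2.117; HBV replication induced (no doxycycline); serial compound dilutions, 3 d; intracellular HBV DNA by real-time PCR, HBV-specific primers/probe.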

[2] = Human liver microsome stability; type: in vitro ADME
Method in brief: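 Half-life came from elimination rate constant (negative slope of ln compound/internal standard area ratio over time), measured by cassette LC-MS after acetonitrile quench. Human liver microsome reactions, one replicate per compound, were initiated with NADPH (1 mM final) and sampled at six points up to 60 min.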

[3] = tested on: HepG2 or HepG2.117 cells; experiment: Cytotoxicity, ATPlite Luminescence Assay; type: cell-based, human; conditions: 3-days incubation unless marked with *
Method in brief: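 Incubate with compound for 3 or 4 days, then assess cell viability via ATPlite luminescence.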

[4] = pooled human liver microsomes 0.5 mg/mL, 1 μM compound, NADPH 1 mM, 37° C., 0-60 min

SMILES: CC(c1cnc(C(F)(F)F)nc1)N1C[C@@H](C)n2nc3c(c2C1=O)CN(C(=O)c1ccc(Cl)c(Cl)c1)[C@H](C)C3 (single isomer, unassigned) [Compound 34B, (3R,7R)-2-(3,4-dichlorobenzoyl)-3,7-dimethyl-9-((S*)-1-(2-(trifluoromethyl)pyrimidin-5-yl)ethyl)-1,2,3,4,8,9-hexahydropyrido[4′,3′:3,4]pyrazolo[1,5-a]pyrazin-10(7H)-one]
- EC50 [1]: 0.052 µM
- HLM Metabolism t1/2 [2, 4]: >3 h
- CC50 [3]: 34.9 µM

SMILES: CC(c1ccn(C(F)F)c(=O)c1)N1C[C@@H](C)n2nc3c(c2C1=O)CN(C(=O)c1ccc(Cl)c(C(F)(F)F)c1)[C@H](C)C3 (single isomer, unassigned) [Compound 49B, (3R,7R)-2-(4-chloro-3-(trifluoromethyl)benzoyl)-9-((S*)-1-(1-(difluoromethyl)-2-oxo-1,2-dihydropyridin-4-yl)ethyl)-3,7-dimethyl-1,2,3,4,8,9-hexahydropyrido [4′,3′:3,4]pyrazolo[1,5-a]pyrazin-10(7H)-one]
- EC50 [1]: 0.013 µM
- HLM Metabolism t1/2 [2, 4]: >3 h
- CC50 [3]: > 50 µM

SMILES: CC(c1ccc(-c2ccn(C)n2)cc1)N1C[C@@H](C)n2nc3c(c2C1=O)CN(C(=O)c1ccc(Cl)c(C#N)c1)[C@H](C)C3 (single isomer, unassigned) [Compound 21B, 2-Chloro-5-((3R,7R)-3,7-dimethyl-9-((S*)-1-(4-(1-methyl-1H-pyrazol-3-yl)phenyl)ethyl)-10-oxo-1,2,3,4,7,8,9,10-octahydropyrido[4′,3′:3,4]pyrazolo[1,5-a]pyrazine-2-carbonyl)benzonitrile]
- EC50 [1]: 0.012 µM
- HLM Metabolism t1/2 [2, 4]: 2.5 h
- CC50 [3]: > 50 µM

SMILES: CC(c1nnc(C2CC2)o1)N1C[C@@H](C)n2nc3c(c2C1=O)CN(C(=O)c1ccc(Cl)c(Cl)c1)[C@H](C)C3 (single isomer, unassigned) [Compound 44B, (3R,7R)-9-((S*)-1-(5-cyclopropyl-1,3,4-oxadiazol-2-yl)ethyl)-2-(3,4-dichlorobenzoyl)-3,7-dimethyl-1,2,3,4,8,9-hexahydropyrido[4′,3′:3,4]pyrazolo[1,5-a]pyrazin-10(7H)-one]
- EC50 [1]: 0.065 µM
- HLM Metabolism t1/2 [2, 4]: 2.22 h
- CC50 [3]: > 50 µM

SMILES: Cc1nnn(-c2ccc(C(C)N3C[C@@H](C)n4nc5c(c4C3=O)CN(C(=O)c3ccc(Cl)c(Cl)c3)[C@H](C)C5)cc2)n1 (single isomer, unassigned) [Compound 22B, (3R,7R)-2-(3,4-dichlorobenzoyl)-3,7-dimethyl-9-((S*)-1-(4-(5-methyl-2H-tetrazol-2-yl)phenyl)ethyl)-1,2,3,4,8,9-hexahydropyrido[4′,3′:3,4]pyrazolo[1,5-a]pyrazin-10(7H)-one]
- EC50 [1]: 0.02 µM
- HLM Metabolism t1/2 [2, 4]: 2.13 h
- CC50 [3]: > 50 µM

SMILES: CC(c1cnn(C)c(=O)c1)N1C[C@@H](C)n2nc3c(c2C1=O)CN(C(=O)c1ccc(Cl)c(C(F)(F)F)c1)[C@H](C)C3 (single isomer, unassigned) [Compound 52B, (3R,7R)-2-(4-chloro-3-(trifluoromethyl)benzoyl)-3,7-dimethyl-9-((S*)-1-(1-methyl-6-oxo-1,6-dihydropyridazin-4-yl)ethyl)-1,2,3,4,8,9-hexahydropyrido [4′,3′:3,4]pyrazolo[1,5-a]pyrazin-10(7H)-one]
- EC50 [1]: 0.016 µM
- HLM Metabolism t1/2 [2, 4]: >3 h
- CC50 [3]: > 50 µM

SMILES: CNS(=O)(=O)c1ccc(C(C)N2C[C@@H](C)n3nc4c(c3C2=O)CN(C(=O)c2ccc(Cl)c(Cl)c2)[C@H](C)C4)cc1 (single isomer, unassigned) [Compound 17B, 4-((S*)-1-((3R,7R)-2-(3,4-dichlorobenzoyl)-3,7-dimethyl-10-oxo-1,3,4,7,8,10-hexahydropyrido[4′,3′:3,4]pyrazolo[1,5-a]pyrazin-9(2H)-yl)ethyl)-N-methylbenzenesulfonamide]
- EC50 [1]: 0.026 µM
- HLM Metabolism t1/2 [2, 4]: 1.6 h
- CC50 [3]: > 50 µM

SMILES: CC(c1cnc(N2CCOC[C@@H]2C)nc1)N1C[C@@H](C)n2nc3c(c2C1=O)CN(C(=O)c1ccc(Cl)c(C(F)(F)F)c1)[C@H](C)C3 (single isomer, unassigned) [Compound 38B, (3R,7R)-2-(4-chloro-3-(trifluoromethyl)benzoyl)-3,7-dimethyl-9-((S*)-1-(2-((S)-3-methylmorpholino)pyrimidin-5-yl)ethyl)-1,2,3,4,8,9-hexahydropyrido[4′,3′:3,4]pyrazolo[1,5-a]pyrazin-10(7H)-one]
- EC50 [1]: 0.012 µM
- HLM Metabolism t1/2 [2, 4]: 0.642 h
- CC50 [3]: 28.4 µM

SMILES: CC(c1cnn(C2CC2)c(=O)c1)N1C[C@@H](C)n2nc3c(c2C1=O)CN(C(=O)c1ccc(Cl)c(C(F)(F)F)c1)[C@H](C)C3 (single isomer, unassigned) [Compound 54B, (3R,7R)-2-(4-chloro-3-(trifluoromethyl)benzoyl)-9-((S*)-1-(1-cyclopropyl-6-oxo-1,6-dihydropyridazin-4-yl)ethyl)-3,7-dimethyl-1,2,3,4,8,9-hexahydropyrido[4′,3′: 3,4]pyrazolo[1,5-a]pyrazin-10(7H)-one]
- EC50 [1]: 0.01 µM
- HLM Metabolism t1/2 [2, 4]: 1.95 h
- CC50 [3]: > 50 µM

SMILES: C[C@@H]1Cc2nn3c(c2CN1C(=O)c1ccc(Cl)c(C(F)(F)F)c1)C(=O)N([C@H](C)c1ccc([S@@]2(=O)=NCCC2)nc1)C[C@H]3C (relative stereo) [Compound 30A, (3R,7R)-2-(4-chloro-3-(trifluoromethyl)benzoyl)-3,7-dimethyl-9-((R*)-1-(6-((R*)-1-oxido-4,5-dihydro-3H-116-isothiazol-1-yl)pyridin-3-yl)ethyl)-1,2,3,4,8,9-hexahydropyrido[4′,3′:3,4]pyrazolo[1,5-a]pyrazin-10(7H)-one]
- EC50 [1]: 0.14 µM
- HLM Metabolism t1/2 [2, 4]: 0.495 h
- CC50 [3]: > 50 µM

SMILES: CC(c1cnc(NC2CC2)nc1)N1C[C@@H](C)n2nc3c(c2C1=O)CN(C(=O)c1ccc(Cl)c(Cl)c1)[C@H](C)C3 (single isomer, unassigned) [Compound 37B, (3R,7R)-9-((S*)-1-(2-(cyclopropylamino)pyrimidin-5-yl)ethyl)-2-(3,4-dichlorobenzoyl)-3,7-dimethyl-1,2,3,4,8,9-hexahydropyrido[4′,3′:3,4]pyrazolo[1,5-a]pyrazin-10(7H)-one]
- EC50 [1]: 0.041 µM
- HLM Metabolism t1/2 [2, 4]: 0.892 h
- CC50 [3]: > 50 µM

SMILES: CC(c1ccnc(OC(F)F)c1)N1C[C@@H](C)n2nc3c(c2C1=O)CN(C(=O)c1ccc(Cl)c(C(F)(F)F)c1)[C@H](C)C3 (single isomer, unassigned) [Compound 50B, (3R,7R)-2-(4-chloro-3-(trifluoromethyl)benzoyl)-9-((S*)-1-(2-(difluoromethoxy)pyridin-4-yl)ethyl)-3,7-dimethyl-1,2,3,4,8,9-hexahydropyrido[4′,3′:3,4]pyrazolo[1,5-a]pyrazin-10(7H)-one]
- EC50 [1]: 0.024 µM
- HLM Metabolism t1/2 [2, 4]: >3 h
- CC50 [3]: 10.2 µM

SMILES: CC(c1ccc(C(C)(C)O)nc1)N1C[C@@H](C)n2nc3c(c2C1=O)CN(C(=O)c1cc(Cl)c(Cl)cn1)[C@H](C)C3 (single isomer, unassigned) [Compound 57B, (3R,7R)-2-(4,5-dichloropicolinoyl)-9-((S*)-1-(6-(2-hydroxypropan-2-yl)pyridin-3-yl)ethyl)-3,7-dimethyl-1,2,3,4,8,9-hexahydropyrido[4′,3′:3,4]pyrazolo[1,5-a]pyrazin-10(7H)-one]
- EC50 [1]: 0.65 µM
- HLM Metabolism t1/2 [2, 4]: 1.68 h
- CC50 [3]: > 50 µM

SMILES: C[C@@H]1Cc2nn3c(c2CN1C(=O)c1ccc(Cl)c(C#N)c1)C(=O)N([C@@H](C)c1ccc(OC(F)F)cc1)C[C@H]3C (relative stereo) [Compound 1D, 2-Chloro-5-((3R,7R*)-9-((S*)-1-(4-(difluoromethoxy)phenyl)ethyl)-3,7-dimethyl-O-oxo-1,2,3,4,7,8,9,10-octahydropyrido[4′,3′:3,4]pyrazolo[1,5-a]pyrazine-2-carbonyl)benzonitrile]
- EC50 [1]: 0.021 µM
- HLM Metabolism t1/2 ([2]; human, microsomes): >3 h
- CC50 [3]: > 50 µM

SMILES: Cc1nnn(-c2ccc(C(C)N3C[C@@H](C)n4nc5c(c4C3=O)CN(C(=O)c3ccc(Cl)c(Cl)c3)[C@H](C)C5)cn2)n1 (single isomer, unassigned) [Compound 26B, (3R,7R)-2-(3,4-dichlorobenzoyl)-3,7-dimethyl-9-((S*)-1-(6-(5-methyl-2H-tetrazol-2-yl)pyridin-3-yl)ethyl)-1,2,3,4,8,9-hexahydropyrido[4′,3′:3,4]pyrazolo[1,5-a]pyrazin-10(7H)-one]
- EC50 [1]: 0.02 µM
- HLM Metabolism t1/2 [2, 4]: 1.13 h
- CC50 [3]: > 50 µM

SMILES: CC(c1ccc(-n2cncn2)cc1)N1C[C@@H](C)n2nc3c(c2C1=O)CN(C(=O)c1ccc(Cl)c(C#N)c1)[C@H](C)C3 (single isomer, unassigned) [Compound 11B, 5-((3R,7R)-9-((S*)-1-(4-(1H-1,2,4-triazol-1-yl)phenyl)ethyl)-3,7-dimethyl-10-oxo-1,2,3,4,7,8,9,10-octahydropyrido[4′,3′:3,4]pyrazolo[1,5-a]pyrazine-2-carbonyl)-2-chlorobenzonitrile]
- EC50 [1]: 0.032 µM
- HLM Metabolism t1/2 [2, 4]: >3 h
- CC50 [3]: > 50 µM

SMILES: CC(c1cn(C2CC2)c(=O)cn1)N1C[C@@H](C)n2nc3c(c2C1=O)CN(C(=O)c1ccc(Cl)c(Cl)c1)[C@H](C)C3 (single isomer, unassigned) [Compound 56B, (3R,7R)-9-((S*)-1-(4-cyclopropyl-5-oxo-4,5-dihydropyrazin-2-yl)ethyl)-2-(3,4-dichlorobenzoyl)-3,7-dimethyl-1,2,3,4,8,9-hexahydropyrido[4′,3′:3,4]pyrazolo[1,5-a]pyrazin-10(7H)-one]
- EC50 [1]: 0.084 µM
- HLM Metabolism t1/2 [2, 4]: 1.53 h
- CC50 [3]: > 50 µM
